A value given as a limit tells only on which side of the number the result lay.

Common to all, as to test: c-Kit assay: Ba/F3 KIT mutant cell viability (Cell Titer-Glo, 72 hours)
Assay type in all cases: cell-based
Details in all cases: viability after 72 hours

One test addresses T1, BAF3 FL KIT EX11DEL (Homo sapiens, UniProt P10721, cells depend on it, form not given).
T1 construct: BAF3 FL KIT EX11DEL
How it is done:
(§1) Generation of DBa/F3 KIT Mutant Engineered Cell Lines
(§2) KIT cDNAs were synthesized by GenScript and cloned into the pLVX-IRES-Puro vector (Clontech). Viral particles were produced by transfecting pLVX-IRES-puro vectors containing KIT mutant genes into HEK293 cells (Invitrogen) using the Trans-Lentiviral ORF Packaging Kit (Thermo Scientific). 48 hours post-transfection, virus-containing supernatants were harvested and incubated for another 48-72 hours with parental Ba/F3 cells (DSMZ) in the presence of 10 ng/mL IL-3 (R&D Systems). Transduced Ba/F3 cells were then selected by IL-3 withdrawal and puromycin (0.5-1 μg/mL, Invitrogen).
(§3) Cell lines (e.g., EX11DEL, EX11DEL/D816H, EX11DEL/T670I, and EX11DEL/V654A) were plated into 384 well plates using RPMI 1640 supplemented with 10% FBS at densities that produced linear growth and incubated at 37° C. in 5% (v/v) CO2. Cells were treated with eight concentrations of compound over a 4-fold dilution (10 μM to 0.61 nM) and viability was assessed using Cell Titer-Glo assay (Promega) after 72 hours. Data were plotted as percent viability relative to vehicle-treated cells. Dose-responses curves were generated and used to calculate IC50 values.

Test [1] has as its target T2, BAF3 FL KIT EX11DEL/D816H (Homo sapiens, UniProt P10721, D816H, cells depend on it, form not given).
T2 construct: BAF3 FL KIT EX11DEL/D816H
How it is done:
as §1, §2, §3

The target in test [2] is T3, BAF3 FL KIT EX11DEL/T670I (Homo sapiens, UniProt P10721, T670I, cells depend on it, form not given).
T3 construct: BAF3 FL KIT EX11DEL/T670I
How it is done:
as §1, §2, §3

The target of test [3] is T4, BAF3 FL KIT EX11DEL/V654A (Homo sapiens, UniProt P10721, V654A, cells depend on it, form not given).
T4 construct: BAF3 FL KIT EX11DEL/V654A
How it is done:
as §1, §2, §3

T4 sequence (P10721 with tags, fused parts or gaps DEL557-558/V654A, form open): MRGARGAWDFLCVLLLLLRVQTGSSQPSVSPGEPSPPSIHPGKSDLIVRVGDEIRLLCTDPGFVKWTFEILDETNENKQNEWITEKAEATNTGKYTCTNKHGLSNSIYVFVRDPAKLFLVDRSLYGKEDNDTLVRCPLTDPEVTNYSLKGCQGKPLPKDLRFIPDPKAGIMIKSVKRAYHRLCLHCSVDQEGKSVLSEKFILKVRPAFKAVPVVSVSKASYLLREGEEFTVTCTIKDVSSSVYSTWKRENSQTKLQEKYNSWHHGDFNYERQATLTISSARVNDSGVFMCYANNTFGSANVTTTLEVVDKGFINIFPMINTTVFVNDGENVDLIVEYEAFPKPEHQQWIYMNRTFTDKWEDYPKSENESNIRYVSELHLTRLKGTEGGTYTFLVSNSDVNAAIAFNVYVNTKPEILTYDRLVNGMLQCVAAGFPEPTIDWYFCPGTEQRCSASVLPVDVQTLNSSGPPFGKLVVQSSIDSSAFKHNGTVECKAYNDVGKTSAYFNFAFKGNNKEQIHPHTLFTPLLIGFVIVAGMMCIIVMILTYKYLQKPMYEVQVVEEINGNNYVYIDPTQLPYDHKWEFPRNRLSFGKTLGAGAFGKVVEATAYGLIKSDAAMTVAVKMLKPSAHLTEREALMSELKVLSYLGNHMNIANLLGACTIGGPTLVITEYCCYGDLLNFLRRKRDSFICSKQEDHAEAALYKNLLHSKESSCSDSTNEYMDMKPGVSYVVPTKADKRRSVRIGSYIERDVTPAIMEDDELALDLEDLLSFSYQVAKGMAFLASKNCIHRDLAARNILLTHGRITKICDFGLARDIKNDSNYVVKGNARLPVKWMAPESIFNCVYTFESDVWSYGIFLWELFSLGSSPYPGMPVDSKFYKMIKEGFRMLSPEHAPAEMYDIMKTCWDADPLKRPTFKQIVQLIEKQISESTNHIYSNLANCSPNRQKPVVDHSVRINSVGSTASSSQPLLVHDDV
T2 sequence (P10721 with tags, fused parts or gaps DEL557-558/D816H, form open): as the sequence (P10721 with tags, fused parts or gaps DEL557-558/V654A, form open) above, with A652V, D814H counted along it
T3 sequence (P10721 with tags, fused parts or gaps DEL557-558/T670I, form open): as the sequence (P10721 with tags, fused parts or gaps DEL557-558/V654A, form open) above, with A652V, T668I counted along it
T1 sequence (P10721 with tags, fused parts or gaps DEL557-558): as the sequence (P10721 with tags, fused parts or gaps DEL557-558/V654A, form open) above, with A652V counted along it

For `COC(=O)Nc1ncc(C#Cc2cc(C(=O)Nc3cc(C(F)(F)F)ccn3)ccc2C)s1` [I-3, methyl (5-((2-methyl-5-((4-(trifluoromethyl)pyridin-2-yl)carbamoyl)phenyl)ethynyl)thiazol-2-yl)carbamate], the concentration for 50% growth inhibition (GI50) (commonly the concentration giving 50% growth inhibition) was less than 10 nM on BAF3 FL KIT EX11DEL, 10 to 50 nM in test [1], 10 to 50 nM in test [2] and 10 to 50 nM in test [3].
As for `Cc1ccc(C(=O)Nc2cc(C(F)(F)F)ccn2)cc1C#Cc1cnc(NC(=O)N(C)CCN2CCCC2)s1` [I-19, 4-methyl-3-((2-(3-methyl-3-(2-(pyrrolidin-1-yl)ethyl)ureido)thiazol-5-yl)ethynyl)-N-(4-(trifluoromethyl)pyridin-2-yl)benzamide], the GI50 was less than 10 nM on BAF3 FL KIT EX11DEL, 10 to 50 nM in test [1], 10 to 50 nM in test [2] and 10 to 50 nM in test [3].
`Cc1ccc(C(=O)Nc2cc(C(F)(F)F)ccn2)cc1C#Cc1cnc(NC(=O)NCCN2CCCC2)s1` [I-12, 4-methyl-3-((2-(3-(2-(pyrrolidin-1-yl)ethyl)ureido)thiazol-5-yl)ethynyl)-N-(4-(trifluoromethyl)pyridin-2-yl)benzamide]: the GI50 on BAF3 FL KIT EX11DEL is less than 10 nM; in test [1], 10 to 50 nM; in test [2], 50 to 100 nM; in test [3] it was 50 to 100 nM.
For `COCCN(C)C(=O)Nc1ncc(C#Cc2cc(C(=O)Nc3ccc(C#N)c(C(F)(F)F)c3)ccc2C)s1` [I-48, N-(4-cyano-3-(trifluoromethyl)phenyl)-3-((2-(3-(2-methoxyethyl)-3-methylureido)thiazol-5-yl)ethynyl)-4-methylbenzamide], the GI50 at BAF3 FL KIT EX11DEL was less than 10 nM; in test [1], 10 to 50 nM; in test [2], 10 to 50 nM; in test [3] it was 50 to 100 nM.
In the case of `Cc1ccc(C(=O)Nc2cc(C(F)(F)F)ccn2)cc1C#Cc1cnc(NC(=O)N(C)C2CCC(O)CC2)s1` (stereo not drawn) [I-22, 3-((2-(3-(4-hydroxycyclohexyl)-3-methylureido)thiazol-5-yl)ethynyl)-4-methyl-N-(4-(trifluoromethyl)pyridin-2-yl)benzamide], the GI50 (at BAF3 FL KIT EX11DEL; in test [1]; in test [2]; in test [3]) was less than 10 nM each time.
As for `NC(=O)Nc1ncc(C#Cc2ccc(F)c(C(=O)Nc3cc(C(F)(F)F)ccn3)c2)s1` [I-43, 2-fluoro-N-(4-(trifluoromethyl)pyridin-2-yl)-5-((2-ureidothiazol-5-yl)ethynyl)benzamide], the GI50 is less than 10 nM on BAF3 FL KIT EX11DEL, 100 to 10000 nM in test [1], 100 to 10000 nM in test [2] and 100 to 10000 nM in test [3].
Take `Cc1ccc(C(=O)Nc2cc(C(F)(F)F)ccn2)cc1C#Cc1cnc(NC(=O)N(C)CCN(C)C)s1` [I-9, 3-((2-(3-(2-(dimethylamino)ethyl)-3-methylureido)thiazol-5-yl)ethynyl)-4-methyl-N-(4-(trifluoromethyl)pyridin-2-yl)benzamide]: the GI50 on BAF3 FL KIT EX11DEL was less than 10 nM; in test [1] it was 10 to 50 nM; in test [2] it was less than 10 nM; in test [3] it was 10 to 50 nM.
With `Cc1ccc(C(=O)Nc2cc(C(F)(F)F)ccn2)cc1C#Cc1cnc(NC(=O)N2CCOCC2)s1` [I-35, N-(5-((2-methyl-5-((4-(trifluoromethyl)pyridin-2-yl)carbamoyl)phenyl)ethynyl)thiazol-2-yl)morpholine-4-carboxamide], the concentration for 50% growth inhibition (GI50) on BAF3 FL KIT EX11DEL is less than 10 nM; in test [1] it was less than 10 nM; in test [2], less than 10 nM; in test [3], 10 to 50 nM.
As for `CNC(=O)Nc1ncc(C#Cc2cc(C(=O)Nc3cc(C(F)(F)F)ccn3)ccc2F)s1` [I-45, 4-fluoro-3-((2-(3-methylureido)thiazol-5-yl)ethynyl)-N-(4-(trifluoromethyl)pyridin-2-yl)benzamide], the GI50 was less than 10 nM at BAF3 FL KIT EX11DEL, 10 to 50 nM in test [1], less than 10 nM in test [2] and 10 to 50 nM in test [3].
Take `CNC(=O)Nc1ncc(C#Cc2cccc(C(=O)Nc3cc(C(F)(F)F)ccn3)c2)s1` [I-44, 3-((2-(3-methylureido)thiazol-5-yl)ethynyl)-N-(4-(trifluoromethyl)pyridin-2-yl)benzamide]: the GI50 on BAF3 FL KIT EX11DEL was less than 10 nM; in test [1], 10 to 50 nM; in test [2], less than 10 nM; in test [3], 10 to 50 nM.
With `Cc1ccc(C(=O)Nc2cc(C(F)(F)F)ccn2)cc1C#Cc1cnc(NC(=O)N(C)CC2CCCN2C)s1` (stereo not drawn) [I-20, 4-methyl-3-((2-(3-methyl-3-((1-methylpyrrolidin-2-yl)methyl)ureido)thiazol-5-yl)ethynyl)-N-(4-(trifluoromethyl)pyridin-2-yl)benzamide], the GI50 at BAF3 FL KIT EX11DEL was less than 10 nM; in test [1], 10 to 50 nM; in test [2], 10 to 50 nM; in test [3] it was 10 to 50 nM.
As for `Cc1ccc(C(=O)Nc2cc(C(F)(F)F)ccn2)cc1C#Cc1cnc(NC(=O)N(C)C2CN(C)C2)s1` [I-39, 4-methyl-3-((2-(3-methyl-3-(1-methylazetidin-3-yl)ureido)thiazol-5-yl)ethynyl)-N-(4-(trifluoromethyl)pyridin-2-yl)benzamide], the 50% growth inhibitory concentration (GI50) on BAF3 FL KIT EX11DEL lay in the range of 10 to 50 nM; in test [1] it was 100 to 10000 nM; in test [2] it was 100 to 10000 nM; in test [3], 100 to 10000 nM.
Consider `Cc1ccc(C(=O)Nc2cc(C(F)(F)F)ccn2)cc1C#Cc1cnc(NC(=O)N2CCNCC2)s1` [I-30, N-(5-((2-methyl-5-((4-(trifluoromethyl)pyridin-2-yl)carbamoyl)phenyl)ethynyl)thiazol-2-yl)piperazine-1-carboxamide], for which the GI50 was less than 10 nM on BAF3 FL KIT EX11DEL, 10 to 50 nM in test [1], 10 to 50 nM in test [2] and 10 to 50 nM in test [3].
Regarding `Cc1ccc(C(=O)Nc2cc(C(F)(F)F)ccn2)cc1C#Cc1cnc(NC(=O)NCCCN)s1` [I-36, 3-((2-(3-(3-aminopropyl)ureido)thiazol-5-yl)ethynyl)-4-methyl-N-(4-(trifluoromethyl)pyridin-2-yl)benzamide], the 50% growth inhibitory concentration (GI50) at BAF3 FL KIT EX11DEL is less than 10 nM; in test [1], 10 to 50 nM; in test [2], 10 to 50 nM; in test [3] it was 10 to 50 nM.
For the compound `CNC(=O)Nc1ncc(C#Cc2ccc(F)c(C(=O)Nc3cc(C(F)(F)F)ccn3)c2)s1` [I-42, 2-fluoro-5-((2-(3-methylureido)thiazol-5-yl)ethynyl)-N-(4-(trifluoromethyl)pyridin-2-yl)benzamide], the GI50 on BAF3 FL KIT EX11DEL was less than 10 nM; in test [1], 100 to 10000 nM; in test [2] it was 100 to 10000 nM; in test [3], 100 to 10000 nM.
As for `Cc1ccc(C(=O)Nc2ccc(CN3CCN(C)CC3)c(C(F)(F)F)c2)cc1C#Cc1cnc(NC(=O)C2CC2)s1` [I-50, 3-((2-(cyclopropanecarboxamido)thiazol-5-yl)ethynyl)-4-methyl-N-(4-((4-methylpiperazin-1-yl)methyl)-3-(trifluoromethyl)phenyl)benzamide], the 50% growth inhibitory concentration (GI50) at BAF3 FL KIT EX11DEL lay in the range of 10 to 50 nM; in test [1] it was 10 to 50 nM; in test [2], 10 to 50 nM; in test [3], 100 to 10000 nM.
With `Cc1ccc(C(=O)Nc2cc(C(F)(F)F)ccn2)cc1C#Cc1cnc(NC(=O)N2CCC(C)CC2)s1` [I-25, 4-methyl-N-(5-((2-methyl-5-((4-(trifluoromethyl)pyridin-2-yl)carbamoyl)phenyl)ethynyl)thiazol-2-yl)piperidine-1-carboxamide], the GI50 (on BAF3 FL KIT EX11DEL; in test [1]; in test [2]; in test [3]) was 10 to 50 nM in each case.
On to `Cc1ccc(C(=O)Nc2cc(C(F)(F)F)ccn2)cc1C#Cc1cnc(NC(=O)C2CC2)s1` [I-49, 3-((2-(cyclopropanecarboxamido)thiazol-5-yl)ethynyl)-4-methyl-N-(4-(trifluoromethyl)pyridin-2-yl)benzamide], for which the GI50 at BAF3 FL KIT EX11DEL is less than 10 nM; in test [1] it was 10 to 50 nM; in test [2], 10 to 50 nM; in test [3], 10 to 50 nM.
As for `Cc1ccc(NC(=O)c2cc(C(F)(F)F)ccn2)cc1C#Cc1cnc(NC(=O)N(C)CCN2CCN(C)CC2)s1` [I-55, N-(4-methyl-3-((2-(3-methyl-3-(2-(4-methylpiperazin-1-yl)ethyl)ureido)thiazol-5-yl)ethynyl)phenyl)-4-(trifluoromethyl)picolinamide], the concentration for 50% growth inhibition (GI50) is 10 to 50 nM in test [1], 50 to 100 nM in test [2] and 10 to 50 nM in test [3].
`Cc1ccc(NC(=O)c2cc(C(F)(F)F)ccn2)cc1C#Cc1cnc(NC(=O)N(C)C2CCN(C)CC2)s1` [I-53, N-(4-methyl-3-((2-(3-methyl-3-(I-methylpiperidin-4-yl)ureido)thiazol-5-yl)ethynyl)phenyl)-4-(trifluoromethyl)picolinamide]: the GI50 in test [1] lay within 10 to 50 nM; in test [2] it was 50 to 100 nM; in test [3], 10 to 50 nM.

(Values after patent US11753404B2, “Aminothiazole compounds as c-Kit inhibitors” (Ariad Pharmaceuticals, Inc., priority 2016, dated 2023).)
